Key:
[1] = target: T1, PDE4B (Homo sapiens, UniProt Q07343); experiment: Coupled PDE/AK bioluminescent assay of PDE inhibition; type: biochemical; conditions: PDE4B catalytic domain
T1 construct: hex-histidine (His6) (N); made in house
From the text: Phosphodiesterases regulate the activity of the second messenger cyclic adenosine monophosphate (cAMP) by hydrolyzing cAMP to adenosine monophosphate (AMP). We developed a novel coupled PDE/AK bioluminescent high-throughput assay to measure the activity of phosphodiesterases. In the PDE/AK assay, the AMP produced from the hydrolysis of cAMP by phosphodiesterase is converted to adenosine diphosphate (ADP) by the phosphotransferase activity of adenylate kinase (also known as ADK or myokinase). Adenylate kinase will catalyze the conversion of 1 mole of AMP and 1 mole of ATP into 2 moles of ADP. Thus the conversion of AMP to ADP will result in the subsequent loss of ATP. The decrease in ATP concentration can be monitored as light output using luciferase in a reaction that requires ATP to produce light. The PDE/AK assay uses luciferase, which catalyzes the production of light from ATP present in the reaction mix. The amount of emitted light is inversely proportional to the level of AMP present in the reaction. Test compounds are incubated with the phosphodiesterases and phosphodiesterase inhibitors will decrease the rate of cAMP hydrolysis and decrease the subsequent production of AMP. Thus phosphodiesterase inhibitors will decrease the conversion of ATP to ADP and result in the greatest emission of light.
Compounds may be screened for functional potency in in vitro biochemical assays for their ability to inhibit the activity of phosphodiesterase (PDE) enzymes. A novel coupled PDE/AK assay was utilized to measure the inhibitory activity of compounds on PDE isoforms. The catalytic domain of PDE4B was fused to an amino-terminus hex-histidine affinity tag and purified. PDE4B enzyme was incubated with compounds for 10 minutes. Cyclic AMP substrate, ATP and adenylate kinase were then added to the PDE enzyme mix and incubated for 45 minutes at room temperature. A commercial ATP detection assay, Perkin Elmer's easyLite ATP detection reagent, was then added to measure the relative amount of ATP present in the reaction. After […], the luminescent signal was quantitated with either the Perkin Elmer Viewlux or Molecular Devices Acquest or Analyst. Roflumilast and Rolipram are the positive controls used in the assay.

[2] = tested on: Lacrimal Gland Inflammation-Induced Dry Eye in Rabbits; experiment: Lacrimal gland inflammation-induced dry eye in rabbits (corneal staining, tear breakup time); type: in vivo; conditions: topical ocular BID; for Activity at Percent Concentration Tested 1 × 10^−2: 1 × 10^−2 percent concentration; for Activity at Percent Concentration Tested 1 × 10^−4: 1 × 10^−4 percent concentration; for Activity at Percent Concentration Tested 1 × 10^−6: 1 × 10^−6 percent concentration
From the text: A more detailed description of the assay used herein may be found in Naglehout, T J et al. 2005, “Preservation of Tear Film Integrity and Inhibition of Corneal Injury by Dexamethasone in a Rabbit Model of Lacrimal Gland Inflammation-Induced Dry Eye,” J. Ocular Pharm. Ther., 21:2. 139-148, the disclosure of which is hereby incorporated by reference as if written herein in its entirety.
Rabbits (n=4/group) were randomized into treatment groups and dosed topically BID with maxidex vehicle or test drug beginning one day prior to initiation of dry eye. Each rabbit received bilateral lacrimal gland injections of saline or ConA (300 μg/30 μl) and topical ocular dosing was continued BID throughout the study.
Desiccation was initiated 1-2 hours following lacrimal gland injection by placing conscious rabbits in the environmental chamber (10-15% humidity/72° F.). Following 72 consecutive hours of exposure to this dry environment, the animals were anesthetized and sutures were placed in each upper and lower eyelid and lifted to form a corneal/conjunctival cup. Methylene blue dye (1 mL, 1% in dH2O) was added to the cup for three minutes and the excess removed by washing with 200 mL BSS®. The contralateral eye was then stained using the same procedure. Rabbits were euthanized immediately following the staining procedure and the eyes were excised. The corneas were isolated with a trephine and the 9.5-mm punch of the cornea was placed in 2 mL acetone/saturated sodium sulfate (7:3, vol./vol.). Absorbance of the extracted dye was determined at 660 nm.
TBUT was quantified in a separate group of treated animals. TBUT was determined by instilling 5 μL sodium fluorescein into the cul de sac and manually blinking the lids to distribute the fluorescein within the tear film. Under slit lamp observation, the eye was held open and the time whereby one or more black spots or streaks appeared in the precorneal tear film was recorded. The rabbits were euthanized 3 days following ConA injection.

T1 sequence (Q07343 330-659 limits assumed, species assumed): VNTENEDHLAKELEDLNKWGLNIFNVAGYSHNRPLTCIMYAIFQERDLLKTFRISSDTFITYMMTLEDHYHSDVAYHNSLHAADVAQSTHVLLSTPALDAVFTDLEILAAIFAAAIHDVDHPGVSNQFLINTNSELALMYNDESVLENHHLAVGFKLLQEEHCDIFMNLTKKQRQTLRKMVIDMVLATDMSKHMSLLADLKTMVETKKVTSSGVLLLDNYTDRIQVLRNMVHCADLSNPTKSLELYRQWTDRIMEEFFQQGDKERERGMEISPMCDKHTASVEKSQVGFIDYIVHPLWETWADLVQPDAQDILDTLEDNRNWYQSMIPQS

IC50 [1] [µM] | Structure (SMILES) | also measured
≤ 1 | COc1ccc2c(Nc3c(Cl)cncc3Cl)cc(=O)[nH]c2c1OCCCCCC(=O)O [Example 11, 6-(4-(3,5-Dichloropyridin-4-ylamino)-7-methoxy-2-oxo-1,2-dihydroquinolin-8-yloxy)hexanoic acid] | –
≤ 1 | COc1ccc2c(Nc3c(Cl)cncc3Cl)cc(=O)n(C)c2c1OC1CCCC1 [Example 4, 8-(Cyclopentyloxy)-4-(3,5-dichloropyridin-4-ylamino)-7-methoxy-1-methylquinolin-2(1H)-one] | –
≤ 1 | COc1ccc2c(Nc3c(C)cncc3C)cc(=O)[nH]c2c1OCC1CC1 [Example 8, 8-(Cyclopropylmethoxy)-4-(3,5-dimethylpyridin-4-ylamino)-7-methoxyquinolin-2(1H)-one] | Activity at Percent Concentration Tested 1 × 10^−2 [2]: Inactive; Activity at Percent Concentration Tested 1 × 10^−4 [2]: Inactive; Activity at Percent Concentration Tested 1 × 10^−6 [2]: Inactive
≤ 1 | COc1ccc2c(Nc3c(Cl)cncc3Cl)c(Br)c(=O)n(Br)c2c1OC1CCCC1 [Example 6, 1,3-Dibromo-8-(cyclopentyloxy)-4-(3,5-dichloropyridin-4-ylamino)-7-methoxyquinolin-2(1H)-one] | –
≤ 1 | COc1ccc2c(Nc3c(Cl)cncc3Cl)cc(=O)[nH]c2c1OC1CCCC1 [Example 1, 8-(Cyclopentyloxy)-4-(3,5-dichloropyridin-4-ylamino)-7-methoxyquinolin-2(1H)-one] | Activity at Percent Concentration Tested 1 ([2]; 1 percent concentration): Inactive; Activity at Percent Concentration Tested 1 × 10^−1 ([2]; 1 × 10^−1 percent concentration): Inactive; Activity at Percent Concentration Tested 1 × 10^−2 [2]: Inactive
≤ 1 | COc1ccc2c(Nc3c(Cl)cncc3Cl)cc(=O)[nH]c2c1OCCCCCN(C)C [Example 14, 4-(3,5-Dichloropyridin-4-ylamino)-8-(5-(dimethylamino)pentyloxy)-7-methoxyquinolin-2(1H)-one] | –
≤ 1 | COc1ccc2c(Nc3c(Cl)cncc3Cl)c(Br)c(=O)[nH]c2c1OC1CCCC1 [Example 7, 3-Bromo-8-(cyclopentyloxy)-4-(3,5-dichloropyridin-4-ylamino)-7-methoxyquinolin-2(1H)-one] | –
≤ 1 | COc1ccc2c(Nc3c(Cl)cncc3Cl)cc(=O)n(CCO)c2c1OC1CCCC1 [Example 9, 8-(Cyclopentyloxy)-4-(3,5-dichloropyridin-4-ylamino)-1-(2-hydroxyethyl)-7-methoxyquinolin-2(1H)-one] | –
≤ 1 | COc1ccc2c(Nc3c(Cl)cncc3Cl)cc(=O)n(CCN(C)C)c2c1OC1CCCC1 [Example 10, 8-(Cyclopentyloxy)-4-(3,5-dichloropyridin-4-ylamino)-1-(2-(dimethylamino)ethyl)-7-methoxyquinolin-2(1H)-one] | –
≤ 1 | COc1ccc2c(Nc3c(Cl)cncc3Cl)cc(=O)[nH]c2c1OCC1CC1 [Example 3, 8-(Cyclopropylmethoxy)-4-(3,5-dichloropyridin-4-ylamino)-7-methoxyquinolin-2(1H)-one] | –
≤ 1 | COc1ccc2c(Oc3c(Cl)cncc3Cl)cc(=O)[nH]c2c1OC1CCCC1 [Example 2, 8-(Cyclopentyloxy)-4-(3,5-dichloropyridin-4-yloxy)-7-methoxyquinolin-2(1H)-one] | –
≤ 1 | COc1ccc2c(Nc3c(C)cncc3C)cc(=O)[nH]c2c1OC1CCCC1 [Example 5, 8-(Cyclopentyloxy)-4-(3,5-dimethylpyridin-4-ylamino)-7-methoxyquinolin-2(1H)-one] | Activity at Percent Concentration Tested 1 × 10^−2 [2]: Inactive; Activity at Percent Concentration Tested 1 × 10^−4 [2]: Inactive; Activity at Percent Concentration Tested 1 × 10^−6 [2]: Inactive

Structure (SMILES) | IC50 [1] [µM] | also measured
COc1ccc2c(Nc3c(Cl)cncc3Cl)cc(=O)[nH]c2c1OCCCCN(C)C [Example 13, 4-(3,5-Dichloropyridin-4-ylamino)-8-(4-(dimethylamino)butoxy) -7-methoxyquinolin-2(1H)-one] | ≤ 1 | –
COc1ccc2c(Nc3c(C)cncc3C)cc(=O)[nH]c2c1OCC(C)C [Example 12, 4-(3,5-Dimethylpyridin-4-ylamino)-8-isobutoxy-7-methoxyquinolin-2(1H)-one] | ≤ 1 | –

From patent publication US8080563B2, “Bicyclic heteroaryl inhibitors of PDE4” (Kalypsys, priority 2006, dated 2011)
